We go through four compounds from US7381750B2, “Amino-phenoxymethyl-benzamide opioid receptor antagonists” (Eli Lilly and Company, priority 2004, dated 2008).

Structures are written as SMILES. Bounds are passed on as bounds.

The target in assay [1] is T1, cloned human mu opioid receptor (Homo sapiens, UniProt P35372).
T1 construct: expressed in transfected cells
In words: GTP-γ-S binding assay, antagonist mode (mu). It is filed as biochemical. To be noted: functional antagonist potency vs DAMGO 1 micromolar; membranes, [35S]GTP-γ-S SPA; Cheng-Prusoff. The method, then: (§1) The functional antagonist potency (Kb) of the sample compounds was determined using the GTPγS binding assay. GTPgS-based functional assays provide an in vitro measure of the activity of opioid agonists and antagonists. Opioid reference compounds or test compound are incubated with membrane homogenate from cells expressing the cloned human mu, kappa or delta opioid receptor and radiolabeled [35S]GTPgS. If the compound activates the opioid receptor, an increase in the binding of radiolabeled GTPgS is observed. […] These tests provide an in vitro measurement of the activity of the compound at human opioid receptors.
(§2) An SPA-based GTP-γ-S assay format was developed based on previous opioid (Emmerson et al., J. Pharm Exp Ther 278, 1121, 1996; Horng et al., Society for Neuroscience Abstracts, 434.6, 2000) and muscarinic (DeLapp et al., JPET 289, 946, 1999) assay formats. Membranes were resuspended in 20 mM HEPES, 100 mM NaCl, 5 mM MgCl2, 1 mM DTT, and 1 mM EDTA. Fifty (50) […] of GTP-γ-[35S], compound, membrane suspension (20 microgram/well), and wheat germ agglutinin coated SPA beads (1 mg/well) were added to clear bottom 96 well assay plates. GDP ([…]) was added to the membrane solution prior to addition to the assay plates. Plates were sealed and incubated for four hours at room temperature then placed in a refrigerator overnight to allow the beads to settle. Signal stability at 4° C. was determined to be >60 hours. Plates were warmed to room temperature and counted in a Wallac Microbeta scintillation counter. For antagonist assays, specific agonists were added at the following concentrations: (MOR) DAMGO 1 micromolar, (DOR) DPDPE 30 nM, (KOR) U69593 300 nM. Kb's were determined by Cheng-Prusoff equation (see Cheng and Prusoff, Biochem. Pharmacol. 22, 3099, 1973).
(Binding of GTPγS marks nucleotide exchange on a G protein.)

Assay [2] addresses T2, cloned human delta opioid receptor (Homo sapiens, UniProt P41143).
T2 construct: expressed in transfected cells
In words: GTP-γ-S binding assay, antagonist mode (delta). The conditions noted are these: functional antagonist potency vs DPDPE 30 nM; membranes, [35S]GTP-γ-S SPA; Cheng-Prusoff. It is filed as biochemical. The method, then:
as §1, §2

T2 sequence (P41143 whole entry): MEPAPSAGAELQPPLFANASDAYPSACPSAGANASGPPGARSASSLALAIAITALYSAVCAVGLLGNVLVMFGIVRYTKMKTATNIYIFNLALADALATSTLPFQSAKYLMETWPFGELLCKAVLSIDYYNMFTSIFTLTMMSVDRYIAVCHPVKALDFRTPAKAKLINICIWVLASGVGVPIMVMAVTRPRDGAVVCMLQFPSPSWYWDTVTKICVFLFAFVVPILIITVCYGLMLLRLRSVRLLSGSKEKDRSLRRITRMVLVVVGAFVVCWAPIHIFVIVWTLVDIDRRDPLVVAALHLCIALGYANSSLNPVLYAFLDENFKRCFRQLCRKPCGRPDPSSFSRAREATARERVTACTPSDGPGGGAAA
T1 sequence (P35372 whole entry): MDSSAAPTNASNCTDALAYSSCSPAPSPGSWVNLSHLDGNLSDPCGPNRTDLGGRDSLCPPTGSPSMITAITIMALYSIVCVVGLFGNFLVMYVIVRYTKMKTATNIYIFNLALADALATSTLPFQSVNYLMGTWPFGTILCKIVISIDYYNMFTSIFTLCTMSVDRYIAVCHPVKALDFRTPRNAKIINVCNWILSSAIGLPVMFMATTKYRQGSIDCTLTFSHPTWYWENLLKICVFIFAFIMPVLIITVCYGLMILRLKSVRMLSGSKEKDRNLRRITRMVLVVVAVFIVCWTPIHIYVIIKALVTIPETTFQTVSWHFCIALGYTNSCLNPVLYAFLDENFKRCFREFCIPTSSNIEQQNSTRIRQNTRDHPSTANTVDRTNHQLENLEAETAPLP

Take `CC(C)CCNCc1ccc(OCCc2ccc(C(N)=O)cc2)cc1` [Example 5, 4-(2-{4-[(3-Methyl-butylamino)-methyl]-phenoxy}-ethyl)-benzamide]: the Kb was > 23 nM in assay [1] and > 67 nM in assay [2].

Turning to `CC(C)CCNCc1ccc(OCc2ccc(C(N)=O)cc2)cc1` [Example 2, 4-{4-[(3-Methyl-butylamino)-methyl]-phenoxymethyl}-benzamide], the Kb in assay [1] was 62.9 nM; in assay [2] it was 337 nM.

For `CC(C)CCNCc1ccc(COc2ccc(C(N)=O)cc2)cc1` [Example 4, 4-{4-[(3-Methyl-butylamino)-methyl]-benzyloxy}-benzamide], the Kb in assay [1] was > 23 nM; in assay [2], > 67 nM.

Turning to `CC(C)CCNCc1ccc(OCc2cccc(C(N)=O)c2)cc1` [Example 1, 3-{4-[(3-Methyl-butylamino)-methyl]-phenoxymethyl}-benzamide], the figures for the Kb in assay [1] and in assay [2] were > 21 nM and > 41 nM, respectively.

As a reminder, the Kb is the affinity of an antagonist, worked out from how it opposes an agonist. Low values mean higher antagonist affinity, high ones lower antagonist affinity.
